Results taken from publication PMC9147192, “Small Molecule Arranged Thermal Proximity Coaggregation (smarTPCA)—A Novel Approach to Characterize Protein–Protein Interactions in Living Cells by Similar Isothermal Dose–Responses” (International Journal of Molecular Sciences, 2022).

Target: T1, NOP2 (Homo sapiens, UniProt P46087)
T1 construct: dose–responses (mean over replicates), derived from TPP-CCR experiments in living cells; endogenous in cells; host or cells: HL-60 cells (ATCC No. CCL-240)
T1 sequence (P46087 1-812): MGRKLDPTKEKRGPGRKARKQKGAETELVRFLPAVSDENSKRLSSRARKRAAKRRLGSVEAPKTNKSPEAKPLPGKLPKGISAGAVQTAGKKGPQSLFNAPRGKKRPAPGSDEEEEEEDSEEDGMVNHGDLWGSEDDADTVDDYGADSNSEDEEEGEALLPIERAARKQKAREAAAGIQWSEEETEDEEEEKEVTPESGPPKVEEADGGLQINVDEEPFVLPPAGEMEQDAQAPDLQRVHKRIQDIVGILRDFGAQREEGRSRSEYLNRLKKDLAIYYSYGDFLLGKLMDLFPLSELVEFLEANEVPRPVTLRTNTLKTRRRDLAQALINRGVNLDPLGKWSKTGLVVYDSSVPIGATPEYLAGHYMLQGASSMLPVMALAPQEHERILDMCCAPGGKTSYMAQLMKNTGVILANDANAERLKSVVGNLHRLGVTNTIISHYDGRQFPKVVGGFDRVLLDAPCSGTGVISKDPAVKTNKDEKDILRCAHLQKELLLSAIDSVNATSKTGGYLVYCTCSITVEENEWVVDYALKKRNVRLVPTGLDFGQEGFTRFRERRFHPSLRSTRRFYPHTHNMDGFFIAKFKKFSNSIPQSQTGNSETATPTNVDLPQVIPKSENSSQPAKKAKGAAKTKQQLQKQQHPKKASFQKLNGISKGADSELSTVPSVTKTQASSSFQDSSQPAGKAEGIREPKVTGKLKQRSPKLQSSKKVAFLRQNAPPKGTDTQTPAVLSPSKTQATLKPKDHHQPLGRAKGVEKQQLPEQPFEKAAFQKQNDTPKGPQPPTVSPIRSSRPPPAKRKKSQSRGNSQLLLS
Experiment: TPP-CCR in living HL-60 cells
Format: cell-based

Cc1cnc(Nc2ccc(F)cc2Cl)nc1-c1c[nH]c(C(=O)N[C@H](CO)c2cccc(Cl)c2)c1 [ERK 11e]
Hill slope (TPP-CCR, living cells, NOP2): 0.29 | Hill slope (NOP2) (living HL-60 cells, […] °C, TMT-MS): 0.29 | EC50 (living HL-60 cells, […] °C, TMT-MS, read-out: pEC50 (NOP2) (converted)): 105 nM
